# Data published in patent US12371454B2, “Cyclic peptide compound having Kras inhibitory action” (priority 2019, dated 2025).
# Starred links: 1 amine or outer side, 2 acyl side, 3 side chain; linkers in the order of their positions; H or OH if unused. Positions of bridges follow the written chain, without caps; N, C: chain ends. Non-standard residues stand in square brackets, D forms with d. Residues, ends and D or L forms follow the SMILES beside them. *: point of attachment. hPhe(3-Cl-4-CF3) = N[C@@H](CCc1ccc(C(F)(F)F)c(Cl)c1)C(=O)O; NMePhe(4-CF3) = CN[C@@H](Cc1ccc(C(F)(F)F)cc1)C(=O)O; hPhe(4-CF3) = N[C@@H](CCc1ccc(C(F)(F)F)cc1)C(=O)O; X17 = Cc1cncc(C[C@@H](C(=O)[*:2])N(C)[*:1])c1; 3Oxa8azabicyclo(3.2.1)octane = C1CC2COCC1N2*; NMePhe(3-Cl) = CN[C@@H](Cc1cccc(Cl)c1)C(=O)O; NMePhe(4-Cl) = CN[C@@H](Cc1ccc(Cl)cc1)C(=O)O; NMePhe(4-Me) = CN[C@@H](Cc1ccc(C)cc1)C(=O)O; hPhe(4-Cl) = N[C@@H](CCc1ccc(Cl)cc1)C(=O)O; NMedβ3hAla = C[C@H](CC(=O)[*:2])N(C)[*:1]; NMeAla(cPent) = CN[C@@H](CC1CCCC1)C(=O)O; Oic = O=C(O)[C@@H]1C[C@@H]2CCCC[C@@H]2N1; Phe(3-I) = N[C@@H](Cc1cccc(I)c1)C(=O)O; Phe(3-Me) = Cc1cccc(C[C@H](N)C(=O)O)c1; Pro(4,4-F2) = O=C(O)[C@@H]1CC(F)(F)CN1; X26 = O=C([C@@H]1CCC[C@H]1N[*:1])[*:2]; NMeGly(cBu) = CN[C@H](C(=O)O)C1CCC1; NMeCha = CN[C@@H](CC1CCCCC1)C(=O)O; NMeChg = CN[C@H](C(=O)O)C1CCCCC1; NMeF = CN[C@@H](Cc1ccccc1)C(=O)O; NMeI = CC[C@H](C)[C@H](NC)C(=O)O; dNMeF = CN[C@H](Cc1ccccc1)C(=O)O; hPhe = N[C@@H](CCc1ccccc1)C(=O)O; NMeD = CN[C@@H](CC(=O)O)C(=O)O; NMeL = CN[C@@H](CC(C)C)C(=O)O; NMeV = CN[C@H](C(=O)O)C(C)C; d(β3hA) = C[C@@H](N)CC(=O)O; Pip = O=C(O)[C@@H]1CCCCN1; NMeA = CN[C@@H](C)C(=O)O; NMeAib = CNC(C)(C)C(=O)O; Piperidide = C1CCN(*)CC1; Pyrrolidide = C1CCN(*)C1; dNMeA = CN[C@H](C)C(=O)O; Ac5c = NC1(C(=O)O)CCCC1; Aze = O=C(O)[C@@H]1CCN1; Ac3c = NC1(C(=O)O)CC1; Aib = CC(C)(N)C(=O)O; X27 = Clc1ccccc1C*; βAla = NCCC(=O)O; Sar = CNCC(=O)O
# Target: T1, Kras and SOS1 (biotin-tagged human Kras loaded with GDP, His-tagged human SOS1) (Homo sapiens, UniProt P01116, G12D)
# T1 construct: made in house; host or cells: E. coli (stated for Kras only)
# Test: Protein-protein interaction inhibition between Kras and SOS1 (KrasGl2D-SOS PPI) using AlphaScreen
# Assay type: binding
# Conditions: AlphaScreen; biotin-tagged human Kras loaded with GDP, His-tagged human SOS1; read-out: KRAS G12D-SOS PPI IC50
# Summary of the method: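 Kras was produced in E. coli, purified, then loaded with GDP. It was paired via streptavidin acceptor beads with His-SOS1 held on nickel donor beads, and proximity signal at 520-620 nm was read after 680 nm illumination.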
# T1 sequence (P01116 1-188 isoform P01116-2 G12D): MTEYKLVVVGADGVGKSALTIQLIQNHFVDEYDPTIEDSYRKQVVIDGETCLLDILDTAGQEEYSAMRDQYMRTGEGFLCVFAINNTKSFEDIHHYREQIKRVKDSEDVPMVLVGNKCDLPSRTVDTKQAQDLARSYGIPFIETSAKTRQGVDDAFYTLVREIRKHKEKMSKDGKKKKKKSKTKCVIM
row,Compound,IC50 [nM]
1,CC[C@H](C)[C@@H]1NC(=O)[C@H](CC(C)C)N(C)C(=O)C[C@@H](C)NC(=O)[C@H](C(C)C)N(C)C(=O)C2(CCCC2)NC(=O)[C@@H]2CCCN2C(=O)[C@H](CCc2ccc(C(F)(F)F)c(Cl)c2)NC(=O)CN(C)C(=O)[C@H](CC2CCCCC2)N(C)C(=O)[C@@H]2CCN2C(=O)[C@H](CC2CCCC2)N(C)C1=O [Compound 1618] (cyclo([Ac5c][NMeV][d(β3hA)][NMeL]I[NMeAla(cPent)][Aze][NMeCha][Sar][hPhe(3-Cl-4-CF3)]P)),290
2,CC[C@H](C)[C@@H]1NC(=O)[C@H](CC(C)C)N(C)C(=O)C[C@@H](C)N(C)C(=O)[C@H](C(C)C)N(C)C(=O)C2(CC2)NC(=O)[C@@H]2CCCN2C(=O)[C@H](CCc2ccc(C(F)(F)F)c(Cl)c2)NC(=O)CN(C)C(=O)[C@H](CC2CCCCC2)N(C)C(=O)CN(C)C(=O)CN(C)C1=O [Compound 268] (cyclo([Ac3c][NMeV][NMedβ3hAla][NMeL]I[Sar][Sar][NMeCha][Sar][hPhe(3-Cl-4-CF3)]P)),18
3,CC[C@H](C)[C@@H]1NC(=O)[C@H](C)N(C)C(=O)[C@@H]2CCC[C@H]2NC(=O)[C@H](CC(C)C)N(C)C(=O)[C@H](Cc2ccccc2)N(C)C(=O)[C@@H]2CCCN2C(=O)[C@H](CCc2ccc(C(F)(F)F)cc2)NC(=O)CN(C)C(=O)[C@H](Cc2ccc(Cl)cc2)N(C)C(=O)CN(C)C(=O)CN(C)C1=O [Compound 25] (cyclo(I[Sar][Sar][NMePhe(4-Cl)][Sar][hPhe(4-CF3)]P[NMeF][NMeL][X26][NMeA])),150
4,CC[C@H](C)[C@@H]1NC(=O)[C@H](CC(C)C)N(C)C(=O)C[C@@H](C(=O)N2CCCCC2)N(C)C(=O)[C@H](C2CCCCC2)N(C)C(=O)C2(CCCC2)NC(=O)[C@@H]2CCCN2C(=O)[C@H](CCc2ccc(C(F)(F)F)c(Cl)c2)NC(=O)CN(C)C(=O)[C@H](C2CCC2)N(C)C(=O)CN(C)C(=O)CN(C)C1=O [Compound 936] ([NMeL]I[Sar][Sar][NMeGly(cBu)][Sar][hPhe(3-Cl-4-CF3)]P[Ac5c][NMeChg][NMeD]-Piperidide; lactam N-11),1.1
5,CC[C@H](C)[C@@H]1NC(=O)[C@H](CC(C)C)N(C)C(=O)C[C@@H](C)NC(=O)[C@H](C(C)C)N(C)C(=O)C2(CCCC2)NC(=O)[C@@H]2CCCN2C(=O)[C@H](CCc2ccc(C(F)(F)F)c(Cl)c2)NC(=O)CN(C)C(=O)[C@H](Cc2cccc(Cl)c2)N(C)C(=O)CN(C)C(=O)CN(C)C1=O [Compound 1623] (cyclo([Ac5c][NMeV][d(β3hA)][NMeL]I[Sar][Sar][NMePhe(3-Cl)][Sar][hPhe(3-Cl-4-CF3)]P)),54
6,CC[C@H](C)[C@@H]1NC(=O)[C@H](CC(C)C)N(C)C(=O)C[C@@H](C)NC(=O)[C@H](C(C)C)N(C)C(=O)C2(CCCC2)NC(=O)[C@@H]2CCCN2C(=O)[C@H](CCc2ccc(C(F)(F)F)c(Cl)c2)NC(=O)CN(C)C(=O)[C@H](CC2CCCCC2)N(C)C(=O)CN(C)C(=O)[C@@H]2CCN2C1=O [Compound 1020] (cyclo([Ac5c][NMeV][d(β3hA)][NMeL]I[Aze][Sar][NMeCha][Sar][hPhe(3-Cl-4-CF3)]P)),51
7,CC[C@H](C)[C@@H]1NC(=O)[C@H](C)N(C)C(=O)C[C@@H](C(=O)N2CCCCC2)N(C)C(=O)[C@H](C2CCCCC2)N(C)C(=O)C2(CCCC2)NC(=O)[C@@H]2CCCN2C(=O)[C@H](COCc2ccccc2Cl)NC(=O)CN(C)C(=O)[C@H](CC2CCCCC2)N(C)C(=O)CN(C)C(=O)CN(C)C1=O [Compound 2043] ([NMeA]I[Sar][Sar][NMeCha][Sar]S(X27)P[Ac5c][NMeChg][NMeD]-Piperidide; lactam N-11),12
8,CC[C@H](C)[C@@H]1NC(=O)[C@H](C)N(C)C(=O)C[C@@H](C)N(C)C(=O)[C@H](CC(C)C)NC(=O)C(C)(C)N(C)C(=O)[C@H](CC(C)C)NC(=O)[C@H](CCc2ccc(C(F)(F)F)c(Cl)c2)NC(=O)[C@@H](C)N(C)C(=O)[C@H](Cc2ccc(C(F)(F)F)cc2)N(C)C(=O)[C@@H]2CCN2C(=O)CN(C)C1=O [Compound 1383] (cyclo([Aze][NMePhe(4-CF3)][dNMeA][hPhe(3-Cl-4-CF3)]L[NMeAib]L[NMedβ3hAla][NMeA]I[Sar])),130
9,CC[C@H](C)[C@@H]1NC(=O)[C@H](C)N(C)C(=O)C[C@@H](C)NC(=O)[C@H](CC(C)C)N(C)C(=O)C(C)(C)NC(=O)[C@@H]2C[C@@H]3CCCC[C@@H]3N2C(=O)[C@H](CCc2ccc(C(F)(F)F)cc2)NC(=O)CN(C)C(=O)[C@H](Cc2ccc(Cl)cc2)N(C)C(=O)CN(C)C(=O)CN(C)C1=O [Compound 521] (cyclo([Aib][NMeL][d(β3hA)][NMeA]I[Sar][Sar][NMePhe(4-Cl)][Sar][hPhe(4-CF3)][Oic])),71
10,CC[C@H](C)[C@@H]1NC(=O)[C@H](CC(C)C)N(C)C(=O)C[C@@H](C(=O)N2CCCCC2)N(C)C(=O)[C@H](C2CCCCC2)N(C)C(=O)C2(CCCC2)NC(=O)[C@H](Cc2cncc(C)c2)N(C)C(=O)[C@H](CCc2ccc(C(F)(F)F)c(Cl)c2)NC(=O)CN(C)C(=O)[C@H](CC2CCCCC2)N(C)C(=O)[C@@H]2CCN2C(=O)CN(C)C1=O [Compound 477] ([NMeL]I[Sar][Aze][NMeCha][Sar][hPhe(3-Cl-4-CF3)][X17][Ac5c][NMeChg][NMeD]-Piperidide; lactam N-11),4.3
11,CC[C@H](C)[C@@H]1NC(=O)[C@H](C)N(C)C(=O)C[C@@H](C(=O)N2CCCC2)NC(=O)[C@H](CC(C)C)N(C)C(=O)[C@H](CC(C)C)N(C)C(=O)[C@H](CC(C)C)NC(=O)[C@H](CCc2ccc(C(F)(F)F)cc2)NC(=O)CN(C)C(=O)[C@H](Cc2ccc(Cl)cc2)N(C)C(=O)CN(C)C(=O)CN(C)C1=O [Compound 46] ([NMeA]I[Sar][Sar][NMePhe(4-Cl)][Sar][hPhe(4-CF3)]L[NMeL][NMeL]D-Pyrrolidide; lactam N-11),120
12,"CC[C@H](C)[C@@H]1NC(=O)[C@H](CC(C)C)N(C)C(=O)C[C@@H](C)N(C)C(=O)[C@H]([C@@H](C)CC)N(C)C(=O)C2(CCCC2)NC(=O)[C@@H]2CC(F)(F)CN2C(=O)[C@H](CCc2ccc(C(F)(F)F)c(Cl)c2)NC(=O)CN(C)C(=O)[C@H](Cc2ccc(C(F)(F)F)cc2)N(C)C(=O)CN(C)C(=O)CN(C)C1=O [Compound 1003] (cyclo([Ac5c][NMeI][NMedβ3hAla][NMeL]I[Sar][Sar][NMePhe(4-CF3)][Sar][hPhe(3-Cl-4-CF3)][Pro(4,4-F2)]))",8.4
13,CC[C@H](C)[C@@H]1NC(=O)[C@H](C)N(C)C(=O)CCNC(=O)[C@H](CC(C)C)N(C)C(=O)[C@H](Cc2ccccc2)N(C)C(=O)[C@@H]2CCCN2C(=O)[C@H](CCc2ccc(C(F)(F)F)cc2)NC(=O)CN(C)C(=O)[C@H](Cc2ccc(Cl)cc2)N(C)C(=O)CN(C)C(=O)CN(C)C1=O [Compound 1086] (cyclo(I[Sar][Sar][NMePhe(4-Cl)][Sar][hPhe(4-CF3)]P[NMeF][NMeL][βAla][NMeA])),180
14,CC[C@H](C)[C@@H]1NC(=O)[C@H](CC(C)C)N(C)C(=O)C[C@@H](C(=O)N2CCCCC2)N(C)C(=O)[C@H](CC(C)C)NC(=O)C(C)(C)N(C)C(=O)[C@H](CCc2ccccc2)NC(=O)[C@H](Cc2cccc(I)c2)NC(=O)CN(C)C(=O)[C@H](Cc2ccc(C)cc2)N(C)C(=O)CN(C)C(=O)CN(C)C1=O [Compound 13] ([NMeL]I[Sar][Sar][NMePhe(4-Me)][Sar][Phe(3-I)][hPhe][NMeAib]L[NMeD]-Piperidide; lactam N-11),38
15,CC[C@H](C)[C@@H]1NC(=O)[C@H](C)N(C)C(=O)C[C@@H](C(=O)N2CCCC2)NC(=O)[C@H](C(C)C)N(C)C(=O)[C@H](Cc2ccccc2)N(C)C(=O)[C@H](Cc2ccccc2)NC(=O)[C@H](Cc2cccc(C)c2)NC(=O)CN(C)C(=O)[C@H](Cc2ccc(Cl)cc2)N(C)C(=O)CN(C)C(=O)CN(C)C1=O [Compound 467] ([NMeA]I[Sar][Sar][NMePhe(4-Cl)][Sar][Phe(3-Me)]F[NMeF][NMeV]D-Pyrrolidide; lactam N-11),200
16,CC[C@H](C)[C@@H]1NC(=O)[C@H](CC(C)C)N(C)C(=O)C[C@@H](C(=O)N(C)C)N(C)C(=O)[C@H]([C@@H](C)CC)N(C)C(=O)C2(CCCC2)NC(=O)[C@@H](Cc2ccccc2)N(C)C(=O)[C@H](CCc2ccc(C(F)(F)F)c(Cl)c2)NC(=O)CN(C)C(=O)[C@H](Cc2ccc(C)cc2)N(C)C(=O)[C@@H]2CCN2C(=O)[C@H](C)N(C)C1=O [Compound 1909] ([NMeL]I[NMeA][Aze][NMePhe(4-Me)][Sar][hPhe(3-Cl-4-CF3)][dNMeF][Ac5c][NMeI][NMeD]-NMe2; lactam N-11),110
17,CC[C@H](C)[C@@H]1NC(=O)[C@@H]2CCCCN2C(=O)C[C@@H](C(=O)N2CCCCC2)N(C)C(=O)[C@H](C(C)C)N(C)C(=O)C2(CCCC2)NC(=O)[C@@H]2CCCN2C(=O)[C@H](CCc2ccc(Cl)cc2)NC(=O)CN(C)C(=O)[C@H](CC2CCCCC2)N(C)C(=O)CN(C)C(=O)CN(C)C1=O [Compound 841] ([Pip]I[Sar][Sar][NMeCha][Sar][hPhe(4-Cl)]P[Ac5c][NMeV][NMeD]-Piperidide; lactam N-11),24
18,"CC[C@H](C)[C@@H]1NC(=O)[C@H](CC(C)C)N(C)C(=O)C[C@@H](C(=O)N2C3CCC2COC3)N(C)C(=O)[C@H](C2CCCCC2)N(C)C(=O)C2(CCCC2)NC(=O)[C@@H]2CC(F)(F)CN2C(=O)[C@H](CCc2ccc(C(F)(F)F)c(Cl)c2)NC(=O)CN(C)C(=O)[C@H](CC2CCCCC2)N(C)C(=O)CN(C)C(=O)CN(C)C1=O [Compound 1179] ([NMeL]I[Sar][Sar][NMeCha][Sar][hPhe(3-Cl-4-CF3)][Pro(4,4-F2)][Ac5c][NMeChg][NMeD]-{3Oxa8azabicyclo(3.2.1)octane}; lactam N-11)",0.52
